Measurements taken from patent US20250367269A1, “KYNURENINE AMINOTRANSFERASE AND PRODUCTS THEREOF FOR THE TREATMENT OF ARTHRITIC DISEASES” (Institut National de Recherche Pour L'Agriculture, …, priority 2022, published 2025).

Test system: collagen-antibody induced arthritis
Assay: collagen-antibody induced arthritis model
Type: in vivo, C57BL6J male mice
Conditions: administration in collagen-antibody induced arthritis mouse model; summary statement, no details
Procedure: C57BL6J male mice were injected intraperitoneally with a cocktail of arthritogenic anti-type II collagen (2 mg/mouse) at day 0. At day 3, mice received an injection of lipopolysaccharide from bacterial cells walls of E. coli 055: B5. The severity of arthritis was evaluated every other day on each paw with a score from 0 to 4, for a maximal score of 16 by animal (0=normal joint, 1=moderate redness and slight swelling or swelling of one or two digits, 2=moderate redness and moderate paw swelling or swelling more than three digits, 3=redness and swelling from tarsal joints to metatarsal joints, 4=severe redness and severe swelling of the entire paw). Hindpaw swelling was measured at the same time by plethysmography. Paw volume determined prior to disease induction was used as the baseline. The development of arthritis was analyzed by histological assessment. Hindpaws were dissected then fixed in 4% formalin (Labonord). Hindpaws were further decalcified in 10% EDTA for 1 month and embedded in paraffin blocks. Five μm-thick tissue sections were cut and two stainings were performed, hematoxylin, eosin and toluidine blue. Histological examination was carried out blindly by three independent observers. Synovium from ankle joint was graded on a scale of 0 to 3 (with 0=normal and 3=major changes) for synovial hyperplasia (width of lining layer) and tissue cell infiltration. […]

For `O=C(O)c1cc(O)c2cccc(O)c2n1` [xanthurenic acid], the arthritis severity was “reduces arthritis severity”.
